Blank lines part the entries; values can stand above or below the molecule they belong to.
Tests used:
heparanase processing [1] = assay: Heparanase processing in heparanase-transfected cells (immunoblot with antibody #1453); type: cell-based, human
Procedure: Total cell lysates were immunoblotted with anti-heparanase antibody #1453.
Total cell lysates were then analyzed for heparanase processing by immunoblotting as above.
Total cell lysates were analyzed by immunoblotting as above.
Cell extracts were prepared using a lysis buffer containing 50 mM Tris-HCl, pH 7.4, 150 mM NaCl, 0.5% Triton X-100, supplemented with a cocktail of protease inhibitors (Roche, Indianapolis, Ind.). Protein concentration was determined (Bradford reagent, BioRad, Hercules, Calif.) and 30 μg protein was resolved by SDS-PAGE under reducing conditions using 10% gels. After electrophoresis, proteins were transferred to PVDF membrane (BioRad) and probed with the appropriate antibody followed by HRP-conjugated secondary antibody (Jackson ImmunoResearch, West Grove, Pa.) and an enhanced chemiluminescent substrate (Pierce).

heparanase [2] = biological target: T1, heparanase (Homo sapiens, UniProt Q9Y251); details: literature (Miao 1999; Parish 1999; Vlodavsky 1994); cited from earlier work
T1 sequence (Q9Y251 36-543): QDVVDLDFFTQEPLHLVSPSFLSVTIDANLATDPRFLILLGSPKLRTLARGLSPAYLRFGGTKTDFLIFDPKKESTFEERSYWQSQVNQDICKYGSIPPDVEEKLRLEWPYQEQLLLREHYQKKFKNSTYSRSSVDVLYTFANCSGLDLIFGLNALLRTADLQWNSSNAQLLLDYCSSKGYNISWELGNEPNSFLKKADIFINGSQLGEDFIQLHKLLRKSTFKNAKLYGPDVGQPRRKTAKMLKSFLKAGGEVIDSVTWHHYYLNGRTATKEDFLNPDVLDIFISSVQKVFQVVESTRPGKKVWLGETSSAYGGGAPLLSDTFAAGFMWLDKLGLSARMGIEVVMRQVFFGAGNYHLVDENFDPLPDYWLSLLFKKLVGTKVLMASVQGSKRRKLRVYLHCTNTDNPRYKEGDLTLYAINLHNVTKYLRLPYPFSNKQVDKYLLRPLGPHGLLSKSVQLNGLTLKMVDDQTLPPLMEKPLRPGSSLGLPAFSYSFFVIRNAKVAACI

heparanase processing [3] = details: U87 glioma cells pre-treated with 100 μM for 2 hours
Procedure: The latent 65 kDa heparanase protein was then added for the indicated time points and total cell lysates were analyzed for heparanase processing by immunoblotting as above.
Cells were then fixed and immunostained with anti heparanase monoclonal antibody (BD, upper panel) and anti heparanase (733, second panel) antibodies. Merge images are shown at the third panel.
For uptake studies, the 65 kDa heparanase precursor was added to confluent cell cultures at a concentration of 1 μg/ml under serum-free conditions. At the indicated time points, the medium was aspirated, cells were washed twice with ice-cold PBS and total cell lysates were prepared as described. Heparanase uptake and processing were analyzed by immunoblotting with antibody #1453.

heparanase processing [4] = tested on: heparanase processing
Source text: In order to further rule out the plasma membrane as the heparanase processing site, heparanase was targeted to the cell membrane by introducing the PDGF-R transmembrane domain at the heparanase C-terminus.

heparanase [5] = biological target: T2, heparanase (Homo sapiens, UniProt Q9Y251); assay: Heparanase activity assay, purified/recombinant active heparanase on 35S-labeled ECM; type: biochemical; details: recombinant active heparanase 40 ng, 2 h, pH 7, 10 μg or 25 μg peptide, dose dependent, versus scrambled peptide
T2 construct: a heterodimer composed of the 8 kDa polypeptide non-covalently associated with the 50 kDa heparanase subunit; ImClone Systems Inc. (gift of Dr Miao, not purchased)
T2 sequence (Q9Y251 158-543 limits assumed): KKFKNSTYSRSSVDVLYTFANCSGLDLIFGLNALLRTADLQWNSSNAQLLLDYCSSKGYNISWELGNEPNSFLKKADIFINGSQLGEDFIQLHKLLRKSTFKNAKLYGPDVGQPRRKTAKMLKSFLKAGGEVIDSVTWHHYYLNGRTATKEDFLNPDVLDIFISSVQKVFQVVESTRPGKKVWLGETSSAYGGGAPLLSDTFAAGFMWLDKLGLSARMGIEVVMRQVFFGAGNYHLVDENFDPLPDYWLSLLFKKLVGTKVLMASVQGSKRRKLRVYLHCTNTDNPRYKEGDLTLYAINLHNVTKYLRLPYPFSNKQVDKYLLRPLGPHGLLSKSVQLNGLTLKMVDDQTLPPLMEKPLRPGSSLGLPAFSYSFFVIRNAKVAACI
T2 sequence (Q9Y251 36-109 partner limits assumed): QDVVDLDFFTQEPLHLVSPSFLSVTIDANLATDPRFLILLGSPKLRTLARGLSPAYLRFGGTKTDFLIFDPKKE
Procedure: FIG. 6A. Purified, active heparanase (20 ng) was added to 1 ml RPMI medium and incubated with affinity-purified antibody #733 (10 μg, ▴), or rabbit IgG (♦) for 1 hour on ice, followed by 1 hour incubation with ^35S-labeled ECM. Heparanase activity was determined as described in ‘Experimental procedures’.
A Purified, recombinant active heparanase (40 ng) was incubated (2 h, pH 7) with 10 μg (▴) or 25 μg (▪) of a peptide containing the amino acid sequence of residues 158 to 171, or with a control, scrambled, peptide (♦). Note a dose-responsive inhibition of heparanase activity upon treatment with the 158-171 peptide.
Preparation of ECM-coated dishes and determination of heparanase activity were performed as described in detail elsewhere [Vlodavsky, I. Current protocols in Cell Biology Vol. 1 pp. 10.14.11-10.14.14, John Wiley & Sons, New York (1999b); Goldshmidt, O. et al., J. Biol. Chem. 276, 29178-29187 (2001); Goldshmidt (2002) ibid.]. […]
To further investigate the importance of this sequence in heparanase catalytic activity, competition experiments were next performed. In these experiments, recombinant active heparanase (40 ng) was incubated (2 h, pH 7) with different concentrations of a peptide containing the amino acid sequence of residues 158 to 171, or with a control scrambled peptide (Scr), and enzymatic activity was determined. […]

Molecule: CO/C1=C\C(C)=C\[C@@H](C)[C@@H](O)[C@@H](C)C/C(C)=C/C=C/[C@H](OC)[C@@H]([C@@H](C)[C@@H](O)[C@H](C)[C@@]2(O)C[C@@H](O)[C@H](C)[C@@H](C(C)C)O2)OC1=O [bafilomycin A1]
- inhibition of heparanase processing (heparanase processing [1]; heparanase-transfected C6 glioma and NMU cells, indicated concentration (nM), 20 hours): complete inhibition
- concentration that completely inhibited heparanase processing (heparanase processing [1]; transfected C6 glioma and NMU cells, 20 hours): ≤ 250 nM

Molecule: PI-88
- inhibition of heparanase activity (heparanase [2]): inhibit heparanase activity

- inhibition of processing of exogenously-added heparanase (heparanase processing [3]): completely inhibited
- inhibition of processing of membrane-targeted heparanase (heparanase processing [4]): completely abolished
Molecule: CCN(CC)CCCC(C)Nc1ccnc2cc(Cl)ccc12 (stereo not shown) [chloroquine]
- reversibility of the inhibition of heparanase processing (heparanase processing [1]; heparanase-transfected C6 glioma cells, 50 μM 20 hours, then 24 hours chase in chloroquine-free medium): reversible
- inhibition of heparanase processing (heparanase processing [1]; heparanase-transfected HEK-293, MDA-435, C6 and NMU cells, increasing concentrations, 20 hours, dose dependent): completely inhibited

- inhibition of heparanase enzymatic activity (heparanase [5]): significantly inhibited
- inhibition of heparanase enzymatic activity (heparanase [5]; listed as Synthetic Peptide Comprising Amino Acid Residues 158 to 171 of Heparanase): Completely Blocks
Molecule: KKFKNSTYSRSSVD (listed as Homo sapiens) [synthetic peptide of residues Lys158-Asp171 of human heparanase]

Molecule: laminaran sulfate
- inhibition of heparanase activity (heparanase [2]): inhibit heparanase activity

From patent US7772187B2, “Substances directed against a specific sequence essential for heparanase catalytic activity and uses thereof as heparanase inhibitors” (Hadasit Medical Research Services and Development Company, …, priority 2004, dated 2010)
